Results: the NIST ThermoML archive (doi:10.1021/je0496950)

Assay: mn = molality of the nth substance listed, in mol/kg
Details: 101 kPa, Liquid; for speed of sound: Pulse-echo method

[Co+2].[O-][Cl+3]([O-])([O-])[O-].[O-][Cl+3]([O-])([O-])[O-] [cobalt(II) perchlorate] + CC#N
Details	mass density, 288.13 K [kg/m3]	mass density, 293.15 K [kg/m3]	mass density, 298.15 K [kg/m3]	mass density, 303.15 K [kg/m3]	mass density, 308.15 K [kg/m3]	mass density, 313.15 K [kg/m3]	mass density, 323.15 K [kg/m3]	speed of sound, 298.15 K [m/s]
m1 = 0.0631	799.771	794.418	789.05	783.653	778.228	772.771	761.76	–
m1 = 0.06311	–	–	–	–	–	–	–	1282.4
m1 = 0.1115	809.436	804.1	798.743	793.363	787.958	782.523	771.558	1285.1
m1 = 0.1477	816.764	811.44	806.094	800.726	795.334	789.913	778.975	1287
m1 = 0.1815	823.65	818.333	812.996	807.639	802.256	796.848	785.942	1289
m1 = 0.2169	831.031	825.723	820.399	815.051	809.685	804.289	793.42	1290.7
m1 = 0.2496	837.824	832.525	827.21	821.873	816.516	811.134	800.293	1292.6
m1 = 0.2829	844.904	839.613	834.306	828.983	823.636	818.267	807.451	1294.5
m1 = 0.3172	852.306	847.023	841.727	836.41	831.074	825.719	814.932	1296.4
m1 = 0.3491	859.24	853.965	848.675	843.372	838.048	832.702	821.94	1298.2

CC#N [acetonitrile] + [Cu+2].[O-][Cl+3]([O-])([O-])[O-].[O-][Cl+3]([O-])([O-])[O-]
m2 = 0
Details	mass density [kg/m3]
288.13 K	787.308
293.15 K	781.932
298.15 K	776.532
303.15 K	771.102
308.15 K	765.645
313.15 K	760.155
323.15 K	749.067

CC#N [acetonitrile] + [O-][Cl+3]([O-])([O-])[O-].[O-][Cl+3]([O-])([O-])[O-].[Zn+2]
m2 = 0
Details	mass density [kg/m3]
288.13 K	787.312
293.15 K	781.934
298.15 K	776.535
303.15 K	771.106
308.15 K	765.649
313.15 K	760.158
323.15 K	749.07

CC#N [acetonitrile] + [Ni+2].[O-][Cl+3]([O-])([O-])[O-].[O-][Cl+3]([O-])([O-])[O-]
m2 = 0
Details	mass density [kg/m3]
288.13 K	787.307
293.15 K	781.93
298.15 K	776.53
303.15 K	771.101
308.15 K	765.645
313.15 K	760.155
323.15 K	749.068
